The source of these data is US20090238808A1, “Process for the identification of novel enzyme interacting compounds” (priority 2005, published 2009).

What all share (test): Kinobeads elution with test compound, mouse brain lysate, MS
What all share (assay type): binding
What all share (conditions): kinase released from kinobeads by specific elution

One assay addresses T1, FYN (Mus musculus, UniProt P39688).
T1 construct: […]; from tissue; host or cells: mouse brain
In short, it runs like this: (§1)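 Kinobeads preloaded with mouse brain lysate under near-physiological buffer conditions were washed gently, then eluted for 30 min at 4° C with elution buffer holding 1.0 mM test compound; DMSO or DMF (2%) buffer served as control. Released proteins were reduced, alkylated, gel-separated and identified by mass spectrometry.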

For another assay, the target named is T2, PYK2 (Mus musculus, UniProt Q9QVP9).
T2 construct: from tissue; host or cells: mouse brain
In short, it runs like this:
as §1

The target of the next assay is T3, GAK (Mus musculus, UniProt Q99KY4).
T3 construct: from tissue; host or cells: mouse brain
T3 sequence (Q99KY4 1-1305): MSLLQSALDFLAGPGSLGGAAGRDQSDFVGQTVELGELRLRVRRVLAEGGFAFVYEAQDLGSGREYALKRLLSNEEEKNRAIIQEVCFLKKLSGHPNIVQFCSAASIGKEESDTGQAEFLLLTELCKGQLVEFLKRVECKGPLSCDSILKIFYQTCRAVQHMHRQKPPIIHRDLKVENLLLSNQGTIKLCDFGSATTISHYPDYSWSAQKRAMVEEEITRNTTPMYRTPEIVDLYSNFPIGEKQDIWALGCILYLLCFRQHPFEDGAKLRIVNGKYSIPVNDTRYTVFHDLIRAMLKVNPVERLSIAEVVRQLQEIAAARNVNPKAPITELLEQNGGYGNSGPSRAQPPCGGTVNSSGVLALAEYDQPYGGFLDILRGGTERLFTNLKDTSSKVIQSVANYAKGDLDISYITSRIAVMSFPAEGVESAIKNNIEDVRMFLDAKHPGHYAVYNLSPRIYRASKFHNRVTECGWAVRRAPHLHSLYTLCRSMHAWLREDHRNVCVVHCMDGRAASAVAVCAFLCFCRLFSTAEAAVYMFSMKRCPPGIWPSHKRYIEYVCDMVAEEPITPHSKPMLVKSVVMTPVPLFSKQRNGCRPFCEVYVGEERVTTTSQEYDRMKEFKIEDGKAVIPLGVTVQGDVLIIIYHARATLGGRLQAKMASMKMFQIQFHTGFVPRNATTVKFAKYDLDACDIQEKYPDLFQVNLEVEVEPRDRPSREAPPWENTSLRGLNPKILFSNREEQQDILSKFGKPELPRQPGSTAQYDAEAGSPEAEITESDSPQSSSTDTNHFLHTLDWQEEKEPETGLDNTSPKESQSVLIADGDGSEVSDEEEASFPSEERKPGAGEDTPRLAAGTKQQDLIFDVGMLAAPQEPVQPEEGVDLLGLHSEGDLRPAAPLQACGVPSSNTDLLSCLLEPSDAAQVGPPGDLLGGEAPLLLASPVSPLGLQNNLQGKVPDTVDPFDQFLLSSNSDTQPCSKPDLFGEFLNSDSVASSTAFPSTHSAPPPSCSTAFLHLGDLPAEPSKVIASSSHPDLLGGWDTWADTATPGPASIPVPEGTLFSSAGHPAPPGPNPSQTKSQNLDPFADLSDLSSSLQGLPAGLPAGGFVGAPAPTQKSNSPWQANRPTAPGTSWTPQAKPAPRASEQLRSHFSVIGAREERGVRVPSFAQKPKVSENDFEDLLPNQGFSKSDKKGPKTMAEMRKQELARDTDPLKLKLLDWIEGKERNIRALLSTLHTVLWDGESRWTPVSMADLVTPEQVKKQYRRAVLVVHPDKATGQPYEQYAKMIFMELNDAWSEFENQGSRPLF
In short, it runs like this:
as §1

T1 sequence (P39688 whole entry): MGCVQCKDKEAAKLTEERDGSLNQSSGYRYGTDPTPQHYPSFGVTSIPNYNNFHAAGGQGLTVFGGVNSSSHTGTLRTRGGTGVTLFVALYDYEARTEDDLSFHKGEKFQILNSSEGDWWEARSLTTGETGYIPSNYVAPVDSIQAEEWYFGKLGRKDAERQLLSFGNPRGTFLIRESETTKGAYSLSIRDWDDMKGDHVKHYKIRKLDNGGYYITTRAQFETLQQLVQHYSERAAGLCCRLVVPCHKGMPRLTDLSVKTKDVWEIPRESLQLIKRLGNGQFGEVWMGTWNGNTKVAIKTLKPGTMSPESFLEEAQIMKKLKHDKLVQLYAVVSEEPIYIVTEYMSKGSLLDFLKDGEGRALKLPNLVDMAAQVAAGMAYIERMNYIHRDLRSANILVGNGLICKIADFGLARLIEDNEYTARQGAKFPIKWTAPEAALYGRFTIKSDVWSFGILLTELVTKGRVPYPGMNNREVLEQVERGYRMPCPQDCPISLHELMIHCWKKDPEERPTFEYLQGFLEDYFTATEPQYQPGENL
T2 sequence (Q9QVP9 whole entry): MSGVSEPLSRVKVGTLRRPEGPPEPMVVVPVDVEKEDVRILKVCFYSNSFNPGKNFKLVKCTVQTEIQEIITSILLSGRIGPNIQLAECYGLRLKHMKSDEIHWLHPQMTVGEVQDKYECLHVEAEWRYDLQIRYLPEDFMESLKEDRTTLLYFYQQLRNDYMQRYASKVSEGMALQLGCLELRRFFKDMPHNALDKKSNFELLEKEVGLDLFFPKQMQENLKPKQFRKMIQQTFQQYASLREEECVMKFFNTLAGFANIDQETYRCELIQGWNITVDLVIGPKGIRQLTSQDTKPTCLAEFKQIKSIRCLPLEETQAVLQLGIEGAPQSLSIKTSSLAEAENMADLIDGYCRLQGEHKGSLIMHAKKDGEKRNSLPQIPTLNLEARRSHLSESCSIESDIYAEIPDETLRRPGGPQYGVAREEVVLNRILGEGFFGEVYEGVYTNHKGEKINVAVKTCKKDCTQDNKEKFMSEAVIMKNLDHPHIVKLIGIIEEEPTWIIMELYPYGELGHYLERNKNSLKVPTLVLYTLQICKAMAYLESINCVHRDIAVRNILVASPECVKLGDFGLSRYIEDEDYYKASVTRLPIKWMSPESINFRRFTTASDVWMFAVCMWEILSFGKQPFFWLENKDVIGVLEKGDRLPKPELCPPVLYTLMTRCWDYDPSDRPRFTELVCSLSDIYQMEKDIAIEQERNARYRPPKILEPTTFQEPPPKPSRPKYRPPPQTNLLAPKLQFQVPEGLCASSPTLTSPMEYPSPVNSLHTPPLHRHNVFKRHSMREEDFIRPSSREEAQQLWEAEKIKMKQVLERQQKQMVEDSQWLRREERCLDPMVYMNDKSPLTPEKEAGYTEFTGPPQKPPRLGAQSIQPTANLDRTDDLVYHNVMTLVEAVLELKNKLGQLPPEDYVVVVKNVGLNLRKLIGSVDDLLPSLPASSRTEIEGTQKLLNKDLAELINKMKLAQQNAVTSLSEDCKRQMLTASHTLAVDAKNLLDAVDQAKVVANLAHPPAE

Turning to `CNC1CC2OC(C)(C1OC)n1c3ccccc3c3c4c(c5c6ccccc6n2c5c31)C(=O)NC4` (stereo not drawn) [CZC9280], on FYN, the “mass spectrometry score, FYN” value stood at 314 and the “number of identified peptides, FYN” value stood at 6. For the same compound, at PYK2, the “mass spectrometry score, PYK2” value is 1978 and the “number of identified peptides, PYK2” value amounted to 82.
With `CC(C)[C@H](CO)Nc1nc(Nc2ccc(C(=O)O)c(Cl)c2)c2ncn(C(C)C)c2n1` [Purvalanol B, reference compound], on FYN, the “mass spectrometry score, FYN” value was determined as 268 and the “number of identified peptides, FYN” value came to 6. On PYK2, the “mass spectrometry score, PYK2” value amounted to 1909 and the “number of identified peptides, PYK2” value is on record as 48.
For the compound `NCc1ccc(Nc2ncc(F)c(Nc3ccccc3)n2)cc1` [CZC00008004], at PYK2, the “mass spectrometry score, PYK2” value was determined as 1228 and the “number of identified peptides, PYK2” value is 58. Besides, on GAK, the “mass spectrometry score, GAK” value is 733 and the “number of identified peptides, GAK” value is 16.
Take `Cn1c(=O)c(-c2c(Cl)cccc2Cl)cc2cnc(Nc3ccc(CN)cc3)cc21` [CZC7324]: on FYN, the “mass spectrometry score, FYN” value amounted to 279 and the “number of identified peptides, FYN” value amounted to 6. Further, at PYK2, the “mass spectrometry score, PYK2” value came to 1401 and the “number of identified peptides, PYK2” value turned out to be 42. At GAK, the “mass spectrometry score, GAK” value worked out at 278 and the “number of identified peptides, GAK” value turned out to be 7.
Take `CCCCCCCCCCCCOS(=O)(=O)[O-].[Na+]` [SDS]: at FYN, the “mass spectrometry score, FYN” value was 407 and the “number of identified peptides, FYN” value turned out to be 17. Moreover, at PYK2, the “mass spectrometry score, PYK2” value was found to be 809 and the “number of identified peptides, PYK2” value is 39. Moreover, at GAK, the “mass spectrometry score, GAK” value is reported as 166 and the “number of identified peptides, GAK” value was determined as 8.
